Test system: SEM cells
Assay: cell viability relative to DMSO control; higher = less cytotoxic
Settings: 48 h
How it was run: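 Cells were incubated for 48 h at 37°C before CellTiter-Glo One luminescence was read. The cells were NOMO1 or SEM (500 cells/well) or P12-Ichikawa (1000 cells/well) leukemia cells, adapted for at least four passages in each medium and seeded in 1536-well plates (5 μl). Dosing used library compounds in DMSO applied by pin over 11 threefold points, 47 μM to 0.79 nM. Viability is the per-plate percentage of DMSO wells, with cell-free wells as background.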

[1] = HPLM + 10% dialyzed FBS, 0.000781 µM
[2] = HPLM + 10% dialyzed FBS, 0.00234 µM
[3] = HPLM + 10% dialyzed FBS, 0.00702 µM
[4] = HPLM + 10% dialyzed FBS, 0.0211 µM
[5] = HPLM + 10% dialyzed FBS, 0.0632 µM
[6] = HPLM + 10% dialyzed FBS, 0.19 µM
[7] = HPLM + 10% dialyzed FBS, 0.569 µM
[8] = HPLM + 10% dialyzed FBS, 1.71 µM
[9] = HPLM + 10% dialyzed FBS, 5.12 µM
[10] = HPLM + 10% dialyzed FBS, 15.4 µM
[11] = HPLM + 10% dialyzed FBS, 46.1 µM
[12] = RPMI 5 mM glucose + 10% FBS, 0.000781 µM
[13] = RPMI 5 mM glucose + 10% FBS, 0.00234 µM
[14] = RPMI 5 mM glucose + 10% FBS, 0.00702 µM
[15] = RPMI 5 mM glucose + 10% FBS, 0.0211 µM
[16] = RPMI 5 mM glucose + 10% FBS, 0.0632 µM
[17] = RPMI 5 mM glucose + 10% FBS, 0.19 µM
[18] = RPMI 5 mM glucose + 10% FBS, 0.569 µM
[19] = RPMI 5 mM glucose + 10% FBS, 1.71 µM
[20] = RPMI 5 mM glucose + 10% FBS, 5.12 µM
[21] = RPMI 5 mM glucose + 10% FBS, 15.4 µM
[22] = RPMI 5 mM glucose + 10% FBS, 46.1 µM
[23] = RPMI 5 mM glucose + 10% dialyzed FBS, 0.000781 µM
[24] = RPMI 5 mM glucose + 10% dialyzed FBS, 0.00234 µM
[25] = RPMI 5 mM glucose + 10% dialyzed FBS, 0.00702 µM
[26] = RPMI 5 mM glucose + 10% dialyzed FBS, 0.0211 µM
[27] = RPMI 5 mM glucose + 10% dialyzed FBS, 0.0632 µM
[28] = RPMI 5 mM glucose + 10% dialyzed FBS, 0.19 µM
[29] = RPMI 5 mM glucose + 10% dialyzed FBS, 0.569 µM
[30] = RPMI 5 mM glucose + 10% dialyzed FBS, 1.71 µM
[31] = RPMI 5 mM glucose + 10% dialyzed FBS, 5.12 µM
[32] = RPMI 5 mM glucose + 10% dialyzed FBS, 15.4 µM
[33] = RPMI 5 mM glucose + 10% dialyzed FBS, 46.1 µM

Structure (SMILES) | cell viability [1] [%] | cell viability [2] [%] | cell viability [3] [%] | cell viability [4] [%] | cell viability [5] [%] | cell viability [6] [%] | cell viability [7] [%] | cell viability [8] [%] | cell viability [9] [%] | cell viability [10] [%] | cell viability [11] [%] | cell viability [12] [%] | cell viability [13] [%] | cell viability [14] [%] | cell viability [15] [%] | cell viability [16] [%] | cell viability [17] [%] | cell viability [18] [%] | cell viability [19] [%] | cell viability [20] [%] | cell viability [21] [%] | cell viability [22] [%] | cell viability [23] [%] | cell viability [24] [%] | cell viability [25] [%] | cell viability [26] [%] | cell viability [27] [%] | cell viability [28] [%] | cell viability [29] [%] | cell viability [30] [%] | cell viability [31] [%] | cell viability [32] [%] | cell viability [33] [%]
CNC(=O)CN1CCC(Oc2cc3c(Nc4cccc(Cl)c4F)ncnc3cc2OC)CC1 | 104 | 110 | 110 | 135 | 112 | 122 | 128 | 130 | 121 | 129 | 104 | 117 | 128 | 116 | 118 | 120 | 130 | 130 | 124 | 125 | 122 | 84.9 | 114 | 113 | 120 | 141 | 138 | 152 | 140 | 149 | 125 | 138 | 88.8
C=CCc1ccc(O)c(-c2ccc(O)c(CC=C)c2)c1 | 103 | 107 | 109 | 95.3 | 120 | 112 | 105 | 56.1 | 40.6 | 40.4 | 37.6 | 78.6 | 88.8 | 93.2 | 85.1 | 93.6 | 108 | 79.1 | 20 | 14.7 | 21.4 | 17.6 | 98.8 | 101 | 109 | 89.6 | 109 | 107 | 94 | 27.2 | 20.6 | 21.4 | 24.6
OC(CN1CCN(c2cccc(Cl)c2)CC1)C(c1ccccc1)c1ccccc1 (configuration not stated) | 99.1 | 97.9 | 102 | 101 | 104 | 110 | 92.1 | 10.6 | 8.66 | 7.09 | 7.14 | 101 | 95.2 | 106 | 107 | 111 | 32.4 | 24 | 6.74 | 8 | 8.3 | 7.07 | 111 | 95.2 | 104 | 103 | 105 | 38.2 | 42.9 | 7.36 | 8.19 | 8.02 | 7.53
Cc1noc(-c2ccc(CSCCC(=O)O)cc2)c1NC(=O)OC(C)c1ccccc1Cl (configuration not stated) | 95.3 | 95.1 | 99.2 | 89.3 | 88.4 | 97 | 99.7 | 89.3 | 97.1 | 98.7 | 95.6 | 99.9 | 98.8 | 82.5 | 94.5 | 83.9 | 100 | 96.2 | 70.3 | 101 | 89.7 | 81.3 | 90 | 108 | 104 | 115 | 97 | 115 | 101 | 69.3 | 117 | 114 | 88.3
COc1cccc2c1[C@]13CCN(CC4CC4)[C@H](C2)[C@]1(OC)CCC(=O)C3 | 71.3 | 90.6 | 20 | 108 | 106 | 105 | 107 | 109 | 116 | 120 | 111 | 89.4 | 123 | 8.7 | 113 | 116 | 107 | 97 | 113 | 122 | 98.4 | 110 | 81.2 | 108 | 18.8 | 99.8 | 105 | 106 | 84.6 | 97.4 | 93.3 | 95.6 | 80.7
C[C@H]1COC/2=C1/C(=O)C(=O)C3=C4CCCC(C)(C)C4=CC=C23 | 116 | 93.8 | 113 | 126 | 126 | 134 | 125 | 106 | 92.1 | 84.1 | 43.1 | 124 | 114 | 135 | 128 | 141 | 130 | 106 | 85.3 | 42.1 | 38.1 | 12.5 | 112 | 107 | 118 | 128 | 140 | 116 | 111 | 104 | 67.4 | 64.5 | 17.3
Cc1c(C)c2c(c(C)c1O)CCC(C)(COc1ccc(CC3SC(=O)NC3=O)cc1)O2 (configuration not stated) | 119 | 113 | 127 | 117 | 124 | 117 | 128 | 132 | 141 | 112 | 93.1 | – | – | – | – | – | – | – | – | – | – | – | 104 | 101 | 127 | 106 | 126 | 121 | 136 | 134 | 154 | 95.4 | 84.9
CC(C)Oc1ccc(C(=O)N[C@H](CNC(=O)CN(C)C)Cc2ccc(-c3cn4cccc([C@H](C)O)c4n3)cc2)cc1Cl | 116 | 129 | 112 | 109 | 118 | 118 | 102 | 44.5 | 33.5 | 39.9 | 48.5 | – | – | – | – | – | – | – | – | – | – | – | 117 | 119 | 117 | 125 | 111 | 111 | 111 | 38.2 | 34.4 | 29.4 | 35.5
